Experimental findings from patent publication US5736548A, “6-aryl pyrazolo[3,4-D] pyrimidin-4-ones and compositions and method of use thereof” (Sanofi, priority 1997, dated 1998) are described below.

One may read the IC50 as the concentration needed to halve the response being measured. Lower therefore signals greater potency. For orientation: inhibition means the share of the control response that was lost under treatment.

Several values for one entry are separate records, joined by “and”; a condition that tells them apart may be missing. Equal values may be shown once.

Experiment [1] concerns Spontaneously hypertensive rats (SHR). Description: Antihypertensive activity in conscious spontaneously hypertensive rats (mean arterial pressure). The format is in vivo. Particulars: Rattus norvegicus, 5 min, SHR iv. As to the method: After a 2 day recovery from surgery, three baseline blood pressure measurements were made at 5 min intervals in conscious SHR. Compounds to be tested or vehicle were then administered intravenously in a dose-dependent manner (0.3-10 mg base/kg) while arterial pressure was recorded continuously on a polygraph. The mean arterial pressure response was measured 5 minutes after the administration of each dose of the test compound and the next dose given in a cumulative dose fashion. The response to each dose of the test compound was calculated as the difference from the mean of the three baseline measurements.

The target of the next experiment is cGMP-PDE V (Homo sapiens, UniProt O76074). Description: biochemical. More on the design: species or system various animal species and man. The conditions noted are these: for IC50: values separated by / and marked * are separate experimental runs; for inhibition at 0.1 µM / inhibition at 1 µM: read-out: Percent Inhibition cGMP-PDE V. As to the method: The cGMP-PDE and other PDE isozymes were isolated from cardiovascular tissues (heart and aorta) of various animal species and man by anion-exchange and affinity chromatography as described by Silver et al., Sec. Messeng. Phos. 13:13-25, 1991; PDE activity, in the presence and absence of test compounds was determined essentially as described by Thompson et al., Adv. Cyclic Nucleotide Res. 10:69-92. To determine the potency and selectivity of compounds as PDE inhibitors, compounds are screened for their effect on cyclic nucleotide hydrolysis at 10 μM. […] The IC50 values are calculated from concentration-response curves as described by Tallarida and Murray, Manual of Pharmacologic Calculations with Computer Programs, Procedure 8, Graded Dose-response, pp. 14-19, Springer-Verlag, New York, 1981.

For experiment [2], the system named is nitroglycerin tolerant spontaneously hypertensive rats. The experiment can be described thus: Reversal of nitroglycerin-induced tolerance in spontaneously hypertensive rats. The class given is in vivo. The conditions noted are these: for Percent (%) Reversal of Nitroglycerin-induced Tolerance: intravenously 5-10 minutes prior to nitroglycerin challenge. The protocol:
Spontaneously hypertensive rats (17-25 weeks of age) were made nitroglycerin tolerant by repeated administration of high doses of nitroglycerin (100 mg/kg, s.c., 3 times/day for 3 consecutive days). To confirm tolerance challenge doses of nitroglycerin were administered intravenously at doses ranging from 1-300 μg/kg and the maximum change in mean arterial pressure (MAP) for each dose was recorded. Groups of tolerant rats were pretreated with the compounds of the invention (tolerant pretreated group) or with vehicle (0.05N NaOH) (tolerant vehicle pretreated group) intravenously 5-10 minutes prior to administration of challenge doses of nitroglycerin. The administration of challenge doses of nitroglycerin to non-tolerant rats (the non-tolerant group) caused a dose-dependent decrease in MAP of between 10 to 40 mm Hg. […] The area under the dose-MAP curve was calculated for the non-tolerant group and for the tolerant vehicle pretreated group and the tolerant pretreated group. The percent reversal of nitrate-inducedtolerance was calculated as follows:
Percent Reversal=(AUCtol -pretreated-AUCtol-veh)/(AUCnontol
AUCnontol =the area under the dose-MAP curve for the non-tolerant group.
AUCtol-veh =the area under the dose-MAP curve for the tolerant vehicle pretreated group.
AUCtol-pretreated =the area under the dose-MAP curve for the tolerant pretreated group.
The following table summarizes the results obtained from the testing of representative compounds of the invention.

Experiment [3] deals with Spontaneously hypertensive rats (SHR). Description: Antihypertensive activity in conscious spontaneously hypertensive rats (mean arterial pressure). The format is in vivo. The conditions noted are these: Rattus norvegicus, 5 min, po.

In the case of `CCCOc1ccccc1-c1nc2n(C3CCCC3)[nH]c(C)c-2c(=O)n1` [1 (c), 1-cyclopentyl-3-methyl-6-(2-propoxyphenyl)-pyrazolo[3,4-d]pyrimidin-4-one], the change in vivo at 1 mg/kg in experiment [1] (5 minutes after dose) was -5%. At cGMP-PDE V, the concentration for half-maximal inhibition (IC50) is 0.007 µM and 0.003 µM.

`CCc1nn(C2CCCC2)c2nc(-c3ccc(-n4ccnc4)cc3)[nH]c(=O)c12` [8 (a), 1-cyclopentyl-3-ethyl-6-[4-(1-imidazolyl)phenyl]-pyrazolo-[3,4-d] pyrimidin-4-one 1/2 hydrate]: the “Percent (%) Reversal of Nitroglycerin-induced Tolerance” value (from here on “Percent (%) Reversal”) in experiment [2] (0.3 mg/kg) is recorded as 5%. The change in vivo at 30 mg/kg in experiment [3] was -81%. The same compound returned an ED25 in experiment [1] of 5.7 mg/kg. Also, in experiment [1] (5 minutes after dose), the change in vivo at 3 mg/kg is -20% and the change in vivo at 10 mg/kg is -35%. At cGMP-PDE V, the 50% inhibitory concentration (IC50) was 0.41 µM and 0.43 µM.

Take `C=CCOc1ccccc1-c1nc2c(c(CC)nn2C2CCCC2)c(=O)[nH]1` [9 (b), 1-cyclopentyl-3-ethyl-6-[2-(CH2 =CH--CH2 O)phenyl]pyrazolo[3,4-d]pyrimidin-4-one]: the change in vivo at 10 mg/kg in experiment [1] (5 minutes after dose) was -19%. For the same compound, the concentration for half-maximal inhibition (IC50) against cGMP-PDE V is 0.0049 µM.

On to `CCc1[nH]n(C2CCCC2)c2nc(-c3cccc(OCCN4CCOCC4)c3)nc(=O)c1-2` [13 (b), 1-cyclopentyl-3-ethyl-6-[3-[2-(4-morpholinyl)ethoxy]phenyl]-pyrazolo[3,4-d]pyrimidin-4-one], for which the “Percent (%) Reversal” value in experiment [2] (0.3 mg/kg) is given as 58%. Besides, in experiment [3], the change in vivo at 30 mg/kg is -58%. The same compound returned an ED25 in experiment [1] of 9.5 mg/kg. Moreover, the change in vivo at 0.3 mg/kg in experiment [1] (0.3 mg/kg, 5 minutes after dose) was -11%. In addition, in experiment [1] (5 minutes after dose), the change in vivo at 1 mg/kg was -14% and the change in vivo at 3 mg/kg was -19%. In addition, at cGMP-PDE V, half-maximal inhibition (IC50) required 0.107 µM.

On to `CCc1[nH]n(C2CCCC2)c2nc(-c3cccc(OCCN4CCCCC4)c3)nc(=O)c1-2` [19 (b), 1-cyclopentyl-3-ethyl-6-[3-[2-(1-piperidinyl)ethoxy]phenyl]pyrazolo[3,4-d]pyrimidin-4-one], for which the ED25 in experiment [1] is 12.5 mg/kg. The change in vivo at 10 mg/kg in experiment [1] (5 minutes after dose) was -19%. Besides, at cGMP-PDE V, the IC50 is 0.073 µM.

The compound `CCc1[nH]n(C2CCCC2)c2nc(-c3cccc(OCCN4CCCC4)c3)nc(=O)c1-2` [22 (b), 1-cyclopentyl-3-ethyl-6-[3-[2-(1-pyrrolidinyl)ethoxy]phenyl]pyrazolo[3,4-d]pyrimidin-4-one] yielded an ED25 in experiment [1] of 17.9 mg/kg. In addition, the change in vivo at 10 mg/kg in experiment [1] (5 minutes after dose) is -18%. Inhibition at cGMP-PDE V was half-maximal at 0.14 µM (IC50).

In experiment [1], `CCc1[nH]n(C2CCCC2)c2nc(-c3cccc(-n4ccnc4)c3)nc(=O)c1-2` [24 (c), 1-cyclopentyl-3-ethyl-6-[3-(1-imidazolyl)phenyl]pyrazolo-[3,4-d]pyrimidin-4-one] had an ED25 of 12.7 mg/kg. In experiment [1] (5 minutes after dose), the change in vivo at 3 mg/kg was -13% and the change in vivo at 10 mg/kg is -21%. On cGMP-PDE V, this compound showed an IC50 of 0.13 µM.

Take `CCc1nn(C2CCCC2)c2nc(-c3ccc(OCCN4CCOCC4)c(OCCN4CCOCC4)c3)[nH]c(=O)c12` [25 (b), 1-cyclopentyl-3-ethyl-6-[3,4-[2-(4-morpholinyl)ethoxy]phenyl]pyrazolo[3,4-d]pyrimidin-4-one]: in experiment [3] (10 mg/kg), the change in vivo at 10 mg/kg is -18%. Moreover, in experiment [1], the ED25 turned out to be 4.5 mg/kg. Besides, in experiment [1] (5 minutes after dose), the change in vivo at 1 mg/kg was -18%, the change in vivo at 3 mg/kg was -27% and the change in vivo at 10 mg/kg is -38%. In addition, at cGMP-PDE V, the 50% inhibitory concentration (IC50) is 0.014 µM and 0.051 µM.

Take `CCc1[nH]n(C2CCCC2)c2nc(-c3ccccc3C)nc(=O)c1-2` [Example 3, 1-cyclopentyl-3-ethyl-6-(2-methylphenyl)-pyrazolo[3,4-d]pyrimidin-4-one]: in experiment [1] (5 minutes after dose), the change in vivo at 1 mg/kg is -7%. Besides, the IC50 against cGMP-PDE V was 0.2 µM.

Turning to `CCOc1ccccc1-c1nc2n(C3CCCC3)[nH]c(CC)c-2c(=O)n1` [Example 4, 1-cyclopentyl-3-ethyl-6-(2-ethoxyphenyl)-pyrazolo[3,4-d]pyrimidin-4-one], the change in vivo at 10 mg/kg in experiment [1] (5 minutes after dose) was -13%. In addition, half-maximal inhibition at cGMP-PDE V (IC50) was put at 0.0058 µM.

As to `CCc1[nH]n(C2CCCC2)c2nc(-c3ccccc3OC)nc(=O)c1-2` [Example 5, 1-cyclopentyl-3-ethyl-6-(2-methoxyphenyl)-pyrazolo[3,4-d]pyrimidin-4-one], the change in vivo at 1 mg/kg in experiment [1] (5 minutes after dose) was -8%. At cGMP-PDE V, this compound registered a half-inhibitory concentration (IC50) of 0.087 µM.

`CCCOc1ccccc1-c1nc2n(C3CCCC3)[nH]c(CC)c-2c(=O)n1` [Example 6, 1-cyclopentyl-3-ethyl-6-(2-propoxyphenyl)-pyrazolo[3,4-d]pyrimidin-4-one]: the “Percent (%) Reversal” value in experiment [2] (1.0 mg/kg) amounted to 49%. In addition, the change in vivo at 10 mg/kg in experiment [1] (5 minutes after dose) is -1%. For the same compound, the concentration for half-maximal inhibition (IC50) against cGMP-PDE V worked out at 0.0016 µM.

As to `CCc1[nH]n(C2CCCC2)c2nc(-c3cccc(OCC(=O)O)c3)nc(=O)c1-2` [Example 21, 1-cyclopentyl-3-ethyl-6-[3-(carboxymethoxy)phenyl]pyrazolo[3,4-d]pyrimidin-4-one], the change in vivo at 10 mg/kg in experiment [1] (5 minutes after dose) is -1%. The compound further gave an IC50 against cGMP-PDE V of 0.093 µM.

With `C=CCc1cccc(-c2nc3n(C4CCCC4)[nH]c(CC)c-3c(=O)n2)c1O` [Example 36, 1-cyclopentyl-3-ethyl-6-[2-hydroxy-3-(2-propenyl)phenyl]pyrazolo[3,4-d]pyrimidin-4-one], on cGMP-PDE V, the inhibition at 0.1 µM is 0% and the inhibition at 1 µM is 4%.

With `CCc1[nH]n(C2CCCC2)c2nc(-c3cccc(O)c3)nc(=O)c1-2` [Example 44, 1-cyclopentyl-3-ethyl-6-(3-hydroxyphenyl)pyrazolo[3,4-d]pyrimidin-4-one], at cGMP-PDE V, the inhibition at 0.1 µM is 29% and the inhibition at 1 µM is 56%.

For the compound `O=[N+]([O-])OCC(CO[N+](=O)[O-])O[N+](=O)[O-]` [nitroglycerin, reference compound], the “hypotensive response to nitroglycerin challenge, tolerant vehicle pretreated group (in words)” value in experiment [2] (tolerant rats, vehicle pretreated, nitroglycerin 1-300 μg/kg iv) was “significant reduction of the hypotensive response”.
